Experimental findings from ChEMBL document CHEMBL4229386, “Benzopyrroloxazines containing a bridgehead nitrogen atom as promising scaffolds for the achievement of biologically active agents” (Eur J Med Chem, 2018) are described below.

In brackets after ≈: the same amount, converted by molar mass.

For one experiment, the target named is T1, Acetylcholinesterase (Bos taurus, UniProt P23795).
T1 sequence (P23795 whole entry): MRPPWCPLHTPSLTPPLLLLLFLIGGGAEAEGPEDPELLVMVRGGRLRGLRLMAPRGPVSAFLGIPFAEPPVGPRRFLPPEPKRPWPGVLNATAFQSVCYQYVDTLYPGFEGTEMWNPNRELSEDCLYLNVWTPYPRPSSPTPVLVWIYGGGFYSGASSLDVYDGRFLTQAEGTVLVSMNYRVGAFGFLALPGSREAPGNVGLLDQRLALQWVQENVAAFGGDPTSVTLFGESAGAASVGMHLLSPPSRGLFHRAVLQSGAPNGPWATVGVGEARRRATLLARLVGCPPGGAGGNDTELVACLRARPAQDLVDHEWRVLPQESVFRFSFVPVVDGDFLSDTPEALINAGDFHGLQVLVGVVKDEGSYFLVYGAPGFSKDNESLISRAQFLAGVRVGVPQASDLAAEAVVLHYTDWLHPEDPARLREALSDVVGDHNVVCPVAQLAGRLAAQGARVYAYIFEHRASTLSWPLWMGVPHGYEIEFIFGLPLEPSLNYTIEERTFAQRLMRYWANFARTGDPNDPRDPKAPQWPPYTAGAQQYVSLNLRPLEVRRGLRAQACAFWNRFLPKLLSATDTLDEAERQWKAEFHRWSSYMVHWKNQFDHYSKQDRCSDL
The experiment can be described thus: Inhibition of bovine AChE using ACH iodide as substrate preincubated for 60 mins followed by substrate addition and measured after 1 hrs by spectrophotometeric analysis.

For another experiment, the species on record is Rattus norvegicus. The experiment can be described thus: Analgesic activity in rat assessed as inhibition of acetic acid-induced writhing. Format: functional. (In general: An intraperitoneal irritant provokes the stretching counted in writhing tests.)
The next experiment concerns Hepatitis C virus. The experiment can be described thus: Antiviral activity against HCV replicon after 3 days by RT-PCR analysis. Format: functional, organism-based, Hepacivirus hominis. The note with it: 72 h. For orientation: A replicon is a self-replicating genome or part of one, used to study replication in cells.
The next experiment relates to Staphylococcus aureus. The experiment in a line: Antimicrobial activity against Staphylococcus aureus. Format: functional.
The next experiment relates to Escherichia coli. The experiment can be described thus: Antimicrobial activity against Escherichia coli. Format: functional.
Experiment [1] deals with T2, RNA-directed RNA polymerase (Hepacivirus hominis, UniProt O39930). The experiment can be described thus: Inhibition of HCV genotype 1b NS5B RNA dependent RNA polymerase expressed in Escherichia coli BL21 (DE3) using biotinylated oligo-dT12 primer as substrate after 60 mins. Also noted: species or system Hepatitis C virus subtype 1b.
T2 sequence (O39930 whole entry): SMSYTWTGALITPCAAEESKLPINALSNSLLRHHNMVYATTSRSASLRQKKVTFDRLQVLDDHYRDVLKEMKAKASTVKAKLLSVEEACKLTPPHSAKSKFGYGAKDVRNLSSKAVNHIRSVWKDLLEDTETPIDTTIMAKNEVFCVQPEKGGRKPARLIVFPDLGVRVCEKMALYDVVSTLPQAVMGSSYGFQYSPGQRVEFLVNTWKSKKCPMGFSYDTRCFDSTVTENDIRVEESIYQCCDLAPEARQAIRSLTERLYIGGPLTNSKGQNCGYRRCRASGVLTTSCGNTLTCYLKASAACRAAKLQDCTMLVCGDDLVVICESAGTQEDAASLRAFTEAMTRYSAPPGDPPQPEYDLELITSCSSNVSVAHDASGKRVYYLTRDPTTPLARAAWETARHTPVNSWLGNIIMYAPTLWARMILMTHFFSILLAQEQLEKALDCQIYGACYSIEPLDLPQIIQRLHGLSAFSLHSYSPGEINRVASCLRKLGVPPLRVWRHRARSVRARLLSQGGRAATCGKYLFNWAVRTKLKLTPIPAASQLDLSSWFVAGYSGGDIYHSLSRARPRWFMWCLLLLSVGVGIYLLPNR
In experiment [2] the target is Sodium channel protein type 9 subunit alpha (Rattus norvegicus, UniProt O08562). The experiment in a line: Inhibition of Nav1.7 in rat dorsal root ganglions at -60 mV holding potential by patch clamp assay. In general terms: Patch clamp records ionic current or voltage across a cell membrane.
Chain of Sodium channel protein type 9 subunit alpha (O08562 whole entry): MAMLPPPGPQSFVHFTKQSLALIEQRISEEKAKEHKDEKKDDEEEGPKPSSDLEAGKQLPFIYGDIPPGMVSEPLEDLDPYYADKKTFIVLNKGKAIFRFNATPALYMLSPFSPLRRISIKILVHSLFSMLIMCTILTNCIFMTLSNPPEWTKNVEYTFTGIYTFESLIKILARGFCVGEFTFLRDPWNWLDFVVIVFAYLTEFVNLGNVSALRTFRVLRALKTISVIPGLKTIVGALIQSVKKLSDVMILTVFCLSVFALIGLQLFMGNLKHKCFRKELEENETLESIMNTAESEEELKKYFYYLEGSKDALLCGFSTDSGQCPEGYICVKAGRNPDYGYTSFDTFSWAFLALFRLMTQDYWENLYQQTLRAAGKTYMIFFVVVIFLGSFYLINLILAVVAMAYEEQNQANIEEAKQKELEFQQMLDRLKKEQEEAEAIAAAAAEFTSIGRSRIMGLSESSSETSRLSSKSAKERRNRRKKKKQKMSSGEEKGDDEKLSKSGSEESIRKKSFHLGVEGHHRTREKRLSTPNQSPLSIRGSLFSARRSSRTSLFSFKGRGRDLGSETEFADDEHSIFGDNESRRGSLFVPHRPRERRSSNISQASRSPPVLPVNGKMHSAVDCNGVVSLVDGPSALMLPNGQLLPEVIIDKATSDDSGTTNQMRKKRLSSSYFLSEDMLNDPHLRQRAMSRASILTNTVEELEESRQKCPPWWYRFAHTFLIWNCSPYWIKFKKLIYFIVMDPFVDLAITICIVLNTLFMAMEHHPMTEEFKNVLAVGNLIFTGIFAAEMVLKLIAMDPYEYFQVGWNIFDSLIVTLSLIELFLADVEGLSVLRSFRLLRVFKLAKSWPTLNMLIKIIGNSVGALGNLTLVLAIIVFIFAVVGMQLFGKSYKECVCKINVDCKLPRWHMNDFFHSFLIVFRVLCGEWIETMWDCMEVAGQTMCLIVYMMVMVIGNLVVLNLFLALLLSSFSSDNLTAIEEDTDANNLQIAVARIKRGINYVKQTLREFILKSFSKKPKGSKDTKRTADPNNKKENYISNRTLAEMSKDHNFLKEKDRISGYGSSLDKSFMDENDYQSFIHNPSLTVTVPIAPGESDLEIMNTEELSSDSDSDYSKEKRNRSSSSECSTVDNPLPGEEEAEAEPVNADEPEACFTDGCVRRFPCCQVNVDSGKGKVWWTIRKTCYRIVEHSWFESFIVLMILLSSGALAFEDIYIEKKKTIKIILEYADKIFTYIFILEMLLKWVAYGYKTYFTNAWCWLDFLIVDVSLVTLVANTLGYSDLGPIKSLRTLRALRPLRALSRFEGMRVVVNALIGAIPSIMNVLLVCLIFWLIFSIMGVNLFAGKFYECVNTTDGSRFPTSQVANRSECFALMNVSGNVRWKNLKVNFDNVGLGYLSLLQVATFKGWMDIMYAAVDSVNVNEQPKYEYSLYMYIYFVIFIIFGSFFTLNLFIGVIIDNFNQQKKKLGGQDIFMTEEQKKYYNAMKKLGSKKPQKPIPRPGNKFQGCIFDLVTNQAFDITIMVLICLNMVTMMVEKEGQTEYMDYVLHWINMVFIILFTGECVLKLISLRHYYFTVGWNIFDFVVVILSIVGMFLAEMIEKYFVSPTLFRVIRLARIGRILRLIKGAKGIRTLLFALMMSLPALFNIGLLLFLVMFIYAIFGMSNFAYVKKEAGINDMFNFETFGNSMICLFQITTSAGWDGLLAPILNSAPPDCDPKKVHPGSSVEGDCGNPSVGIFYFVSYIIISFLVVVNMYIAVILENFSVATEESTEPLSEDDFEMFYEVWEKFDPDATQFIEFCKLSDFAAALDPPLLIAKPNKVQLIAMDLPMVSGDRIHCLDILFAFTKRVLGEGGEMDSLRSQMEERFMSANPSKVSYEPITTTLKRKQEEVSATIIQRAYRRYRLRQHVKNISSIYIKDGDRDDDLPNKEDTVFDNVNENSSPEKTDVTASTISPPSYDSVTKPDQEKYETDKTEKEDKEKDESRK
The target of experiment [3] is T2, RNA-directed RNA polymerase. The experiment can be described thus: Inhibition of HCV NS5B RNA dependent RNA polymerase.
For experiment [4], the target named is Methionine aminopeptidase 2 (Homo sapiens, UniProt P50579). The experiment can be described thus: Inhibition of human recombinant MetAP2 expressed in Sf9 insect cells using MAS as substrate after 30 mins by fluorometeric analysis.
Chain of Methionine aminopeptidase 2 (P50579 whole entry): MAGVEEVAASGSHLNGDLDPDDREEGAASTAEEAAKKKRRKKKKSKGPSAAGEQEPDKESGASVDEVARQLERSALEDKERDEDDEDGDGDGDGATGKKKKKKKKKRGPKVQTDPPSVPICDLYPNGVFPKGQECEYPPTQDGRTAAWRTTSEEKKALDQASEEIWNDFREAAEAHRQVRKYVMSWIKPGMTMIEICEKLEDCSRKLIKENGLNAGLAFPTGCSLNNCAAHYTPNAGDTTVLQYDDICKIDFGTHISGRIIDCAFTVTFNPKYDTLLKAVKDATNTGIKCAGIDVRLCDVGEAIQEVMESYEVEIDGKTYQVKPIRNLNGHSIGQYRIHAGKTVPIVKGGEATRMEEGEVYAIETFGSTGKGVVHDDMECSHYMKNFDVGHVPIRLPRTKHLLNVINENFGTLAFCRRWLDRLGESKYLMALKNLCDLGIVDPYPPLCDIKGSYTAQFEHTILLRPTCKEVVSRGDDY
Experiment [5] can be described thus: Inhibition of [33P]-ATP binding to Escherichia coli NR2 after 15 mins by liquid scintillation analysis.
Another experiment deals with Staphylococcus. The experiment can be described thus: Antimicrobial activity against Staphylococcus. Format: functional.

Regarding `CC(=O)OC12C=CC(=O)N1c1ccccc1C(=O)O2` (stereo unspecified), the Ki (usually a measure of affinity in units of concentration, obtained from inhibition or displacement) on Acetylcholinesterase is 4700 nM.

Consider `Cc1c(C(=O)c2ccc3ncccc3c2)c2cccc3c2n1C(CN1CCOCC1)CO3` (stereo unspecified), for which the 50% effective dose (ED50) (usually the midpoint of the dose-response relation) in the experiment listed under Rattus norvegicus came to 3.5 mg/kg. With `COC(=O)NC(C(=O)N1CCCC1c1ncc(-c2ccc3c(c2)-n2ccc4cc(-c5cnc(C6CCCN6C(=O)C(NC(=O)OC)C(C)C)[nH]5)cc(c42)O3)[nH]1)C(C)C` (stereo unspecified), a half-maximal response in the experiment with Hepatitis C virus (EC50) required 0.01 nM. As to `CCCc1c(O)cc2oc3cccn3c(=O)c2c1O`, the MIC against Staphylococcus aureus and against Escherichia coli was 2 µg/mL (≈ 7.71 µM) throughout. For the molecule `CN(C)S(=O)(=O)NC(=O)c1ccc2c(C3CCCCC3)c(-c3ccccc3)n3c2c1OCC3`, the half-inhibitory concentration (IC50) (commonly the concentration at which inhibition is half-maximal) in [1] was under 10000 nM. `COc1c(O)cccc1C(=O)N1CCC2(CC1)Oc1ccccc1-n1c(C#N)ccc12`: in [2], the concentration for half-maximal inhibition (IC50) was under 2000 nM. For `COC(=O)NC(C(=O)N1CCCC1c1ncc(-c2ccc3c(c2)OCn2c-3c(F)c3cc(-c4cnc(C5CCCN5C(=O)C(NC(=O)OC)C(C)C)[nH]4)ccc32)[nH]1)C(C)C` (stereo unspecified), the midpoint of inhibition in experiment [3], the IC50, lay at 0.001 nM. `CCN(CC)C/C=C\c1cc(F)ccc1S(=O)(=O)Nc1ccc2c(c1C(=O)O)OCc1cccn1-2`: the IC50 in experiment [4] was under 50 nM.

Molecule `CCCc1c(O)cc2oc3cc(Cl)cn3c(=O)c2c1O` displayed an IC50 in experiment [5] of 20000 nM. Besides, the MIC (in general, the lowest concentration found to suppress growth) against Staphylococcus lay within 0.2 to 0.78 µg/mL (≈ 0.681 to 2.66 µM).
